Results taken from patent US11453697B1, “Cyclic di-nucleotide compounds as sting agonists” (Merck Sharp & Dohme Corp., priority 2015, dated 2022).

Tests used:
[1] = tested on: IFN-β secretion in THP1 cells; test: IFN-β secretion in THP1 cell culture (5 h); format: cell-based, human; conditions: IFN-β secretion in THP1 cell culture, 5 h; compound at 30 μM; percent activation relative to 2′3′-cGAMP
How it was run: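 THP1 cells incubated with compound for 5 h at 37 °C, 5% CO2, and secreted IFN-β in supernatant quantified by AlphaLISA. Percent effect normalised to 30 uM cGAMP positive control and 0.3% DMSO. EC50 from 4-parameter fit.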

full-length HAQ STING = full-length HAQ STING (Homo sapiens (Human), UniProt Q86WV6, G230A/H232R/R293Q/R71H); test: 3H-cGAMP filtration binding assay (HAQ STING); conditions: competition with tritiated cGAMP, HAQ STING membrane; read-out: EC50 (nM), 3H-cGAMP filtration binding assay for HAQ STING
How it was run: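 Competition binding of compounds against 8 nM [3H]cGAMP working stock on Hi-Five cell membranes overexpressing full-length HAQ STING; compound and membrane preincubated 60 min at RT before ligand addition. Bound radioactivity read by filtration and scintillation counting; percent activity normalized to controls, EC50 from 4-parameter fit.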

Sequence of full-length HAQ STING (Q86WV6 other isoform, or with tags, fused parts or gaps, stated change not applied): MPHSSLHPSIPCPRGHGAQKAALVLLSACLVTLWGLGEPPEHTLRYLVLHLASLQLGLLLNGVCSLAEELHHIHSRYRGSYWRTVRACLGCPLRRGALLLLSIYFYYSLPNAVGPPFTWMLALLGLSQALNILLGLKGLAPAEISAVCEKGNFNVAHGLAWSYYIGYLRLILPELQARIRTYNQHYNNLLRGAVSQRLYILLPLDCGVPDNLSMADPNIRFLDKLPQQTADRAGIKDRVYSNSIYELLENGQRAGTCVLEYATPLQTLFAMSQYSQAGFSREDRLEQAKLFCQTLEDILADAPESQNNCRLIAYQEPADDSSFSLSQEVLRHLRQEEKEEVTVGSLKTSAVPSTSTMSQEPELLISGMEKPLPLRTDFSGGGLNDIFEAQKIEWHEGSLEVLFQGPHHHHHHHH

Nc1nc2c(ncn2[C@@H]2O[C@@H]3COP(=O)(O)O[C@H]4[C@@H](F)[C@H](n5cnc6c(=O)[nH]cnc65)O[C@@H]4COP(=O)(O)O[C@@H]2C3)c(=O)[nH]1 [Example 294, 2-amino-9-[(5S,7R,8R,12aR,14R,15R,15aR)-15-fluoro-2,10-dihydroxy-2,10-dioxido-14-(6-oxo-1,6-dihydro-9H-purin-9-yl)octahydro-12H-5,8-methanofuro[3,2-l] [1,3,6,9,11,2,10]pentaoxadiphosphacyclo-tetradecin-7-yl]-1,9-dihydro-6H-purin-6-one]
% Effect at 30 μM relative to 2′3′-cGAMP [1]: 84%
EC50 (full-length HAQ STING): 6.6 nM

NC(=O)c1ncnc2c1ncn2[C@@H]1O[C@@H]2COP(=O)(O)O[C@@H]3[C@H](O)[C@@H](COP(=O)(O)O[C@H]2[C@H]1O)O[C@H]3n1cnc2c(=O)[nH]c(N)nc21 [Example 76, 9-[(5R,7R,8R,12aR,14R,15R,15aS,16R)-7-(2-amino-6-oxo-1,6-dihydro-9H-purin-9-yl)-2,10,15,16-tetrahydroxy-2,10-dioxidooctahydro-12H-5,8-methanofuro[3,2-l][1,3,6,9,11,2,10]pentaoxadiphosphacyclotetradecin-14-yl]-9H-purine-6-carboxamide]
% Effect at 30 μM relative to 2′3′-cGAMP [1]: 39%
EC50 (full-length HAQ STING): 75.4 nM

Nc1nc2c(ncn2[C@@H]2O[C@@H]3COP(=O)(O)O[C@H]4[C@@H](O)[C@H](n5cnc6c(O)ncnc65)O[C@@H]4COP(=O)(O)O[C@@H]2[C@@H]3F)c(=O)[nH]1 [Example 300, 2-amino-9-[(5R,7R,8S,12aR,14R,15R,15aS,16R)-16-fluoro-2,10,15-trihydroxy-14-(6-hydroxy-9H-purin-9-yl)-2,10-dioxidooctahydro-12H-5,8-methanofuro[3,2-l] [1,3,6,9,11,2,10]pentaoxadiphosphacyclo-tetradecin-7-yl]-1,9-dihydro-6H-purin-6-one]
% Effect at 30 μM relative to 2′3′-cGAMP [1]: 86%
EC50 (full-length HAQ STING): 5.1 nM

NC[C@H]1[C@H]2OP(=O)(O)OC[C@H]3O[C@@H](n4cnc5c(N)ncnc54)[C@H](O)[C@@H]3OP(=O)(O)OC[C@H]1O[C@H]2n1cnc2c(=O)[nH]c(N)nc21 [Example 36, 2-amino-9-[(5S,7R,8R,12aR,14R,15R,15aS,16R)-16-(aminomethyl)-14-(6-amino-9H-purin-9-yl)-2,10,15-trihydroxy-2,10-dioxidooctahydro-12H-5,8-methanofuro[3,2-l][1,3,6,9,11,2,10]pentaoxadiphosphacyclotetradecin-7-yl]-1,9-dihydro-6H-purin-6-one]
% Effect at 30 μM relative to 2′3′-cGAMP [1]: 120%
EC50 (full-length HAQ STING): 21.5 nM

Nc1ncnc2c1ncn2[C@@H]1O[C@@H]2COP(=O)(O)O[C@@H]3[C@H](O)[C@@H](COP(=O)(O)O[C@H]2[C@H]1O)O[C@H]3n1cnc2c(=O)[nH]ccc21 [Example 58, 1-[(5R,7R,8R,12aR,14R,15R,15aS,16R)-14-(6-amino-9H-purin-9-yl)-2,10,15,16-tetrahydroxy-2,10-dioxidooctahydro-12H-5,8-methanofuro[3,2-l][1,3,6,9,11,2,10]pentaoxadiphosphacyclotetradecin-7-yl]-1,5-dihydro-4H-imidazo[4,5-c]pyridin-4-one]
% Effect at 30 μM relative to 2′3′-cGAMP [1]: 92%
EC50 (full-length HAQ STING): 3.1 nM

Nc1nc2c(ncn2[C@@H]2O[C@@H]3COP(=O)(S)O[C@H]4[C@H](F)[C@H](n5nnc6c(=O)[nH]cnc65)O[C@@H]4COP(=O)(S)O[C@@H]2C3)c(=O)[nH]1 (stereo partly drawn) [Example 320, 3-[(5S,7R,8R,12aR,14R,15S,15aR)-7-(2-amino-6-oxo-1,6-dihydro-9H-purin-9-yl)-15-fluoro-2,10-dioxido-2,10-disulfanyloctahydro-12H-5,8-methanofuro[3,2-l][1,3,6,9,11,2,10]pentaoxadiphosphacyclotetradecin-14-yl]-3,6-dihydro-7H-[1,2,3]triazolo[4,5-d]pyrimidin-7-one]
% Effect at 30 μM relative to 2′3′-cGAMP [1]: 115%
EC50 (full-length HAQ STING): 6.3 nM

Nc1nc2c(ccn2[C@@H]2O[C@@H]3COP(=O)(O)O[C@H]4[C@@H](O)[C@H](n5cnc6c(N)ncnc65)O[C@@H]4COP(=O)(O)O[C@@H]2[C@@H]3O)c(=O)[nH]1 [Example 30, 2-amino-7-[(5R,7R,8R,12aR,14R,15R,15aS,16R)-14-(6-amino-9H-purin-9-yl)-2,10,15,16-tetrahydroxy-2,10-dioxidooctahydro-12H-5,8-methanofuro[3,2-l][1,3,6,9,11,2,10]pentaoxadiphosphacyclotetradecin-7-yl]-3,7-dihydro-4H-pyrrolo[2,3-d] pyrimidin-4-one]
% Effect at 30 μM relative to 2′3′-cGAMP [1]: 131%
EC50 (full-length HAQ STING): 91 nM

Nc1nc2c(ncn2[C@@H]2O[C@@H]3COP(=O)(O)O[C@H]4[C@H](Cl)[C@H](n5cnc6c(N)ncnc65)O[C@@H]4COP(=O)(O)O[C@@H]2[C@@H]3O)c(=O)[nH]1 [Example 15, 2-amino-9-[(5R,7R,8R,12aR,14R,15S,15aR,16R)-14-(6-amino-9H-purin-9-yl)-15-chloro-2,10,16-trihydroxy-2,10-dioxidooctahydro-12H-5,8-methanofuro[3,2-l][1,3,6,9,11,2,10]pentaoxadiphosphacyclotetradecin-7-yl]-1,9-dihydro-6H-purin-6-one]
% Effect at 30 μM relative to 2′3′-cGAMP [1]: 39%
EC50 (full-length HAQ STING): 378 nM

Nc1nc2c(ncn2[C@@H]2O[C@@H]3COP(=O)(O)O[C@H]4[C@@H](F)[C@H](n5cnc6c(=O)[nH]cnc65)O[C@@H]4COP(=O)(O)O[C@@H]2[C@@H]3F)c(=O)[nH]1 [Example 314, 2-amino-9-[(5R,7R,8S,12aR,14R,15R,15aR,16R)-15,16-difluoro-2,10-dihydroxy-2,10-dioxido-14-(6-oxo-1,6-dihydro-9H-purin-9-yl)octahydro-12H-5,8-methanofuro [3,2-l][1,3,6,9,11,2,10]pentaoxadiphosphacyclotetradecin-7-yl]-1,9-dihydro-6H-purin-6-one]
% Effect at 30 μM relative to 2′3′-cGAMP [1]: 143%
EC50 (full-length HAQ STING): < 1 nM

Nc1ncnc2c1ccn2[C@@H]1O[C@@H]2COP(=O)(O)O[C@@H]3C[C@@H](COP(=O)(O)O[C@H]2[C@H]1O)O[C@H]3n1cnc2c(=O)[nH]cnc21 [Example 67, 9-[(5S,7R,8R,12aR,14R,15R,15aS)-14-(4-amino-7H-pyrrolo[2,3-d]pyrimidin-7-yl)-2,10,15-trihydroxy-2,10-dioxidooctahydro-12H-5,8-methanofuro [3,2-l][1,3,6,9,11,2,10]pentaoxadiphosphacyclotetradecin-7-yl]-1,9-dihydro-6H-purin-6-one]
% Effect at 30 μM relative to 2′3′-cGAMP [1]: 111%
EC50 (full-length HAQ STING): 6.4 nM

Nc1nc2c(ncn2[C@@H]2O[C@@H]3COP(=O)(O)O[C@H]4[C@@H](F)[C@H](n5cnc6c(=O)[nH]cnc65)O[C@@H]4COP(=O)(O)O[C@@H]2[C@@H]3O)c(=O)[nH]1 [Example 293, 2-amino-9-[(5R,7R,8R,12aR,14R,15R,15aR,16R)-15-fluoro-2,10,16-trihydroxy-2,10-dioxido-14-(6-oxo-1,6-dihydro-9H-purin-9-yl)octahydro-12H-5,8-methanofuro[3,2-l] [1,3,6,9,11,2,10]pentaoxadiphosphacyclo-tetradecin-7-yl]-1,9-dihydro-6H-purin-6-one]
% Effect at 30 μM relative to 2′3′-cGAMP [1]: 86%
EC50 (full-length HAQ STING): 1.9 nM
